Several values for one entry are separate records, joined by “and”; a condition that tells them apart may be missing. Equal entries are not always repeated.
System: biotinylated monoclonal anti-25OH vitamin D antibody
Assay: 25OH Vitamin D LOCI immunoassay, 3-epimer cross-reactivity, no anti-3-epimer antibody added
Assay type: binding, sheep
Settings: No anti-3-epimer VD Ab added; for Avg. Cross-reactivity: average of ten patient sera spiked with 100 ng/mL 3-epimer D3
Description: The 25OH Vitamin D (25(OH)D) immunoassay format employed was a homogeneous competitive chemiluminescent immunoassay based on LOCI® assay technology. The assay was performed on the Siemens Dimension® EXL automated integrated clinical chemistry system (Siemens Healthcare Diagnostics Inc., Deerfield, Ill.). The assay measured the total concentration of 25(OH)D2 and/or 25(OH)D3 in serum and plasma samples. The LOCI® assay reagents included a releasing reagent, two synthetic bead reagents and a biotinylated monoclonal anti-25OH vitamin D antibody reagent. The first bead reagent (designated “Sensibeads”) was coated with streptavidin and contained a photosensitive dye. The second bead reagent (designated “Chemibeads”) was coated with a 25(OH)D3 analog and contained chemiluminescent dye. Sample was incubated with the releasing reagent to release 25(OH)D molecules including 3-epimeric compounds from vitamin D binding proteins. The reaction mixture was then incubated with biotinylated antibody to form a 25(OH)D-biotinylated antibody complex. […] Chemibeads were added to bind excess free biotinylated antibody. Sensibeads were then added to bind to the biotin portion of the biotinylated antibody. Aggregates of Chemibead-analog/antibody-biotin/streptavidin-Sensibeads were formed as a result. […] The resulting chemiluminescent signal was measured at 612 nm and is inversely proportional to the concentration of total 25(OH)D in the sample.
Biotinvlation of anti-25(OH)D antibody—NHS-PEO4-biotin (Pierce Chemical Company, Rockford Ill.) was coupled with the anti-25(OH)D antibody (a sheep monoclonal antibody from Bioventix, Farnham, Surrey, UK). […] The concentration was measured on UV A280. […]
The effect of adding anti-3-epimer-VD antibody 8F10.1 (anti-3-epimer VD Ab) on the 3-epimer cross-reactivity for the assay is shown in Table 1. […] The 3-epimer cross-reactivity was calculated by the difference between 25(OH)D2 or 25(OH)D3 values with and without the spiked 3-epimer compound divided by the amount of added 3-epimer compound.

## C=C1CC[C@@H](O)C/C1=C/C=C1\CCC[C@]2(C)[C@@H]([C@H](C)CCCC(C)(C)O)CC[C@@H]12 [3-epimer D3, 3-epi-25-hydroxyvitamin D3]
  Avg. Cross-reactivity: 13.7%
Listed as 3-epimer vitamin D3 compound
  Avg. Cross-reactivity: 13.7%
Individual patient serum spiked with 100 ng/mL 3-epimer D3
  Cross-Reactivity: 17.9% (2×) and 11.9% and 12.6% and 16.1% and 10.2% and 9.1% and 10.5% and 15.3% and 15.5%

— US9804176B2, “Assays for vitamin D epimers” (Siemens Healthcare Diagnostics Inc., priority 2014, dated 2017)
